Reference: patent US20260125371A1, “METHOD FOR INHIBITING CLOSTRIDIOIDES DIFFICILE SPORE GERMINATION” (UNIVERSITY OF NOTRE DAME DU LAC, priority 2022, published 2026)
≈ marks a conversion by molar mass, not a printed value. Read-outs that look alike come from different tables or passages of the source.

What was measured:
C. difficile strains = assay: MIC (microdilution) against panel of 101 C. difficile strains; format: cell-based, Clostridioides difficile; details: Clostridioides difficile
[1] = system: Corynebacterium spp. HM-784; assay: MIC against Corynebacterium spp. (gut bacteria); format: cell-based; details: SPP.HM784
[2] = system: Bacteroides fragilis HM-709; assay: MIC against Bacteroides fragilis (gut bacteria); format: cell-based; details: HM709
HepG2 cells = assay: XTT cytotoxicity assay; format: cell-based; details: Homo sapiens, HepG2, read-out: XTT IC50
C. difficile ATCC 43255 = format: cell-based, Clostridioides difficile

Compound: O=[N+]([O-])c1cnc(-c2nc(-c3ccc(OC4CCCC4)cc3)no2)[nH]1 [Compound 57, 3-(4-(Cyclopentyloxy)phenyl)-5-(4-nitro-1H-imidazol-2-yl)-1,2,4-oxadiazole]
- MIC (C. difficile strains; strain NR-49280): 0.25 µg/mL (≈ 0.732 µM)
- MIC (C. difficile strains; strain NR-49281): 0.25 µg/mL (≈ 0.732 µM)
- MIC (C. difficile strains; strain NR-49282): 0.5 µg/mL (≈ 1.46 µM)
- MIC (C. difficile strains; strain NR-49283): 0.5 µg/mL (≈ 1.46 µM)
- MIC (C. difficile strains; strain NR-49284): 0.5 µg/mL (≈ 1.46 µM)
- MIC (C. difficile strains; strain NR-49285): 0.5 µg/mL (≈ 1.46 µM)
- MIC (C. difficile strains; strain NR-49286): 0.5 µg/mL (≈ 1.46 µM)
- MIC (C. difficile strains; strain NR-49287): 0.25 µg/mL (≈ 0.732 µM)
- MIC (C. difficile strains; strain NR-49288): 1 µg/mL (≈ 2.93 µM)
- MIC (C. difficile strains; strain NR-49289): 1 µg/mL (≈ 2.93 µM)
- MIC (C. difficile strains; strain NR-49290): 1 µg/mL (≈ 2.93 µM)
- MIC (C. difficile strains; strain NR-49291): 1 µg/mL (≈ 2.93 µM)
- MIC (C. difficile strains; strain NR-49293): 0.5 µg/mL (≈ 1.46 µM)
- MIC (C. difficile strains; strain NR-49295): 1 µg/mL (≈ 2.93 µM)
- MIC (C. difficile strains; strain NR-49296): 1 µg/mL (≈ 2.93 µM)
- MIC (C. difficile strains; strain NR-49297): 1 µg/mL (≈ 2.93 µM)
- MIC (C. difficile strains; strain NR-49298): 1 µg/mL (≈ 2.93 µM)
- MIC (C. difficile strains; strain NR-49299): 1 µg/mL (≈ 2.93 µM)
- MIC (C. difficile strains; strain NR-49300): 1 µg/mL (≈ 2.93 µM)
- MIC (C. difficile strains; strain NR-49301): 0.5 µg/mL (≈ 1.46 µM)
- MIC (C. difficile strains; strain NR-49303): 1 µg/mL (≈ 2.93 µM)
- MIC (C. difficile strains; strain NR-49304): 1 µg/mL (≈ 2.93 µM)
- MIC (C. difficile strains; strain NR-49306): 0.5 µg/mL (≈ 1.46 µM)
- MIC (C. difficile strains; strain NR-49307): 0.5 µg/mL (≈ 1.46 µM)
- MIC (C. difficile strains; strain NR-49308): 0.5 µg/mL (≈ 1.46 µM)
- MIC (C. difficile strains; strain NR-49309): 0.5 µg/mL (≈ 1.46 µM)
- MIC (C. difficile strains; strain NR-49311): 1 µg/mL (≈ 2.93 µM)
- MIC (C. difficile strains; strain NR-49312): 0.5 µg/mL (≈ 1.46 µM)
- MIC (C. difficile strains; strain NR-49313): 0.5 µg/mL (≈ 1.46 µM)
- MIC (C. difficile strains; strain NR-49314): 0.5 µg/mL (≈ 1.46 µM)
- MIC (C. difficile strains; strain NR-49315): 0.5 µg/mL (≈ 1.46 µM)
- MIC (C. difficile strains; strain NR-49316): 1 µg/mL (≈ 2.93 µM)
- MIC (C. difficile strains; strain NR-49317): 1 µg/mL (≈ 2.93 µM)
- MIC (C. difficile strains; strain NR-49319): 0.25 µg/mL (≈ 0.732 µM)
- MIC (C. difficile strains; strain NR-49320): 0.5 µg/mL (≈ 1.46 µM)
- MIC (C. difficile strains; strain NR-49321): 1 µg/mL (≈ 2.93 µM)
- MIC (C. difficile strains; strain NR-49323): 0.5 µg/mL (≈ 1.46 µM)
- MIC (C. difficile strains; strain NR-49324): 1 µg/mL (≈ 2.93 µM)
- MIC (C. difficile strains; strain NR-49325): 0.25 µg/mL (≈ 0.732 µM)
- MIC (C. difficile strains; strain NR-49326): 0.5 µg/mL (≈ 1.46 µM)
- MIC (C. difficile strains; strain NR-49327): 0.25 µg/mL (≈ 0.732 µM)
- MIC (C. difficile strains; strain NR-49328): 2 µg/mL (≈ 5.86 µM)
- MIC (C. difficile strains; strain NR-49329): 0.5 µg/mL (≈ 1.46 µM)
- MIC (C. difficile strains; strain RMA23691): 1 µg/mL (≈ 2.93 µM)
- MIC (C. difficile strains; strain RMA23828): 1 µg/mL (≈ 2.93 µM)
- MIC (C. difficile strains; strain RMA24531): 0.125 µg/mL (≈ 0.366 µM)
- MIC (C. difficile strains; strain RMA24923): 0.125 µg/mL (≈ 0.366 µM)
- MIC (C. difficile strains; strain RMA26675): 2 µg/mL (≈ 5.86 µM)
- MIC (C. difficile strains; strain RMA27081): 1 µg/mL (≈ 2.93 µM)
- MIC (C. difficile strains; strain RMA27173): 2 µg/mL (≈ 5.86 µM)
- MIC50 (C. difficile strains; 101 C. difficile strains, read-out: MIC50): 0.5 µg/mL (≈ 1.46 µM)
- MIC90 (C. difficile strains; 101 C. difficile strains, read-out: MIC90): 1 µg/mL (≈ 2.93 µM)
- MIC90 (C. difficile strains; 101 C. difficile strains, read-out: MIC90 (101 strains)): 1 µg/mL (≈ 2.93 µM)
- MIC [1]: > 128 µg/mL
- MIC [2]: 128 µg/mL (≈ 375 µM)
- IC50 (HepG2 cells): 53.4 ± 4.5 µg/mL (≈ 156 µM)
- passages after which MIC increased 2-fold (C. difficile ATCC 43255; 2-fold MIC increase): 8 passages
- passages after which MIC increased 4-fold (C. difficile ATCC 43255; 4-fold MIC increase): 14 passages
- passages after which MIC increased 8-fold (C. difficile ATCC 43255; 8-fold MIC increase): 20 passages
- increase in MIC on serial passage (C. difficile ATCC 43255; whole serial passage experiment (30 passages)): 8 fold
